# From ChEMBL document CHEMBL1201862, “PubChem BioAssay data set” (2004)
#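 How tested: cells in 96-well plates exposed to compound for 48 hours at five concentrations. At the GI50, growth is halved.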 Activity calls are given as the source filed them. No stated cut-off is given here; in the data, active = GI50 up to about 1.1 µM and inactive = higher.
# Key:
# Assay in all cases: NCI anticancer screen, dose series, 48 h
# [1] = test system: SF-268
# [2] = test system: U-251
# [3] = test system: HOP-92
# [4] = test system: OVCAR-3
# [5] = test system: OVCAR-8
# [6] = test system: XF498
# [7] = test system: SF-539
# [8] = test system: HT-29
# [9] = test system: M14
# [10] = test system: SF-295
# [11] = test system: NCI-H522
# [12] = test system: SNB-19
# [13] = test system: SK-OV-3
# [14] = test system: SW-620
# [15] = test system: HCT-116
# [16] = test system: HCT-15
# [17] = test system: DMS-114
# [18] = test system: LXFL 529
# [19] = test system: NCI-H226
# [20] = test system: HOP-62
# [21] = test system: UO-31
# [22] = test system: HCC 2998
# [23] = test system: OVCAR-5
# [24] = test system: LOX IMVI
# [25] = test system: UACC-257
# [26] = test system: EKVX
# [27] = test system: OVCAR-4
# [28] = test system: CAKI-1
# [29] = test system: Malme-3M
# [30] = test system: RPMI-8226
# [31] = test system: SN12C
# [32] = test system: CCRF-CEM
# [33] = test system: IGROV-1
# [34] = test system: 786-0
# [35] = test system: MOLT-4
# [36] = test system: DLD-1
# [37] = test system: NCI-H460
# [38] = test system: HL-60
# [39] = test system: K562
# [40] = test system: KM-20L2
# [41] = test system: DMS-273
# [42] = test system: A498
# [43] = test system: KM12
# [44] = test system: SNB-75
# [45] = test system: COLO 205
# [46] = test system: SNB-78
# [47] = test system: A549
# [48] = test system: SR
# [49] = test system: NCI-H23
# [50] = test system: RXF 631
# [51] = test system: TK-10
# [52] = test system: UACC-62
# [53] = test system: SK-MEL-5
# [54] = test system: M19-MEL
# [55] = test system: RXF 393
# [56] = test system: ACHN
# [57] = test system: SK-MEL-28
# [58] = test system: SK-MEL-2
compound,measurement,setting,value
N#CC(C#N)=C1CCC2C(=C(C#N)C#N)CCC12 (stereo not drawn),GI50,[1],> 100 µM (inactive)
same,GI50,[2],> 100 µM (inactive)
same,GI50,[3],> 100 µM (inactive)
same,GI50,[4],> 100 µM (inactive)
same,GI50,[5],> 100 µM (inactive)
same,GI50,[6],> 100 µM (inactive)
same,GI50,[7],> 100 µM (inactive)
same,GI50,[8],> 100 µM (inactive)
same,GI50,[9],> 100 µM (inactive)
same,GI50,[10],> 100 µM (inactive)
same,GI50,[11],> 100 µM (inactive)
same,GI50,[12],> 100 µM (inactive)
same,GI50,[13],> 100 µM (inactive)
same,GI50,[14],> 100 µM (inactive)
same,GI50,[15],> 100 µM (inactive)
same,GI50,[16],> 100 µM
same,GI50,[17],> 100 µM (inactive)
same,GI50,[18],> 100 µM (inactive)
same,GI50,[19],> 100 µM (inactive)
same,GI50,[20],> 100 µM (inactive)
same,GI50,[21],> 100 µM (inactive)
same,GI50,[22],> 100 µM (inactive)
same,GI50,[23],> 100 µM (inactive)
same,GI50,[24],> 100 µM (inactive)
same,GI50,[25],> 100 µM (inactive)
same,GI50,[26],> 100 µM (inactive)
same,GI50,[27],> 100 µM (inactive)
same,GI50,[28],> 100 µM (inactive)
same,GI50,[29],> 100 µM (inactive)
same,GI50,[30],> 100 µM (inactive)
same,GI50,[31],> 100 µM (inactive)
same,GI50,[32],> 100 µM (inactive)
same,GI50,[33],> 100 µM (inactive)
same,GI50,[34],> 100 µM (inactive)
same,GI50,[35],> 100 µM (inactive)
same,GI50,[36],> 100 µM (inactive)
same,GI50,[37],> 100 µM (inactive)
same,GI50,[38],> 100 µM (inactive)
same,GI50,[39],> 100 µM (inactive)
same,GI50,[40],> 100 µM (inactive)
same,GI50,[41],> 100 µM (inactive)
same,GI50,[42],> 100 µM (inactive)
same,GI50,[43],> 100 µM (inactive)
same,GI50,[44],> 100 µM (inactive)
same,GI50,[45],> 100 µM (inactive)
same,GI50,[46],> 100 µM (inactive)
same,GI50,[47],> 100 µM (inactive)
same,GI50,[48],> 100 µM (inactive)
same,GI50,[49],> 100 µM (inactive)
same,GI50,[50],> 100 µM (inactive)
same,GI50,[51],> 100 µM (inactive)
same,GI50,[52],> 100 µM (inactive)
same,GI50,[53],> 100 µM (inactive)
same,GI50,[54],> 100 µM (inactive)
same,GI50,[55],> 100 µM (inactive)
C#CCNC(=O)NC(CCCNC(=O)OCc1ccccc1)C(=O)OCc1ccccc1 (stereo not drawn),GI50,[1],> 100 µM (inactive)
same,GI50,[2],> 100 µM (inactive)
same,GI50,[3],19.3 µM (inactive)
same,GI50,[4],> 100 µM (inactive)
same,GI50,[5],> 100 µM (inactive)
same,GI50,[6],12.9 µM (inactive)
same,GI50,[56],> 100 µM (inactive)
same,GI50,[7],50.2 µM (inactive)
same,GI50,[8],> 100 µM (inactive)
same,GI50,[9],24.5 µM (inactive)
same,GI50,[10],> 100 µM (inactive)
same,GI50,[11],25.9 µM (inactive)
same,GI50,[12],> 100 µM (inactive)
same,GI50,[13],> 100 µM (inactive)
same,GI50,[14],> 100 µM (inactive)
same,GI50,[15],> 100 µM (inactive)
same,GI50,[16],> 100 µM
same,GI50,[57],> 100 µM (inactive)
same,GI50,[17],> 100 µM (inactive)
same,GI50,[18],> 100 µM (inactive)
same,GI50,[19],> 100 µM (inactive)
same,GI50,[20],> 100 µM (inactive)
same,GI50,[21],> 100 µM (inactive)
same,GI50,[22],> 100 µM (inactive)
same,GI50,[23],> 100 µM (inactive)
same,GI50,[24],95.1 µM (inactive)
same,GI50,[25],27.9 µM (inactive)
same,GI50,[58],33.7 µM (inactive)
same,GI50,[26],> 100 µM (inactive)
same,GI50,[27],> 100 µM (inactive)
same,GI50,[28],33.8 µM (inactive)
same,GI50,[29],51.9 µM (inactive)
same,GI50,[30],> 100 µM (inactive)
same,GI50,[31],> 100 µM (inactive)
same,GI50,[32],> 100 µM (inactive)
same,GI50,[33],> 100 µM (inactive)
same,GI50,[34],> 100 µM (inactive)
same,GI50,[35],> 100 µM (inactive)
same,GI50,[36],> 100 µM (inactive)
same,GI50,[37],46.2 µM (inactive)
same,GI50,[38],25.4 µM (inactive)
same,GI50,[39],> 100 µM (inactive)
same,GI50,[40],> 100 µM (inactive)
same,GI50,[41],> 100 µM (inactive)
same,GI50,[42],> 100 µM (inactive)
same,GI50,[43],> 100 µM (inactive)
same,GI50,[44],82.4 µM (inactive)
same,GI50,[45],35.7 µM (inactive)
same,GI50,[46],> 100 µM (inactive)
same,GI50,[47],> 100 µM (inactive)
same,GI50,[48],> 100 µM (inactive)
same,GI50,[49],> 100 µM (inactive)
same,GI50,[50],> 100 µM (inactive)
same,GI50,[51],> 100 µM (inactive)
same,GI50,[52],34.8 µM (inactive)
same,GI50,[53],84.1 µM (inactive)
same,GI50,[54],77.1 µM (inactive)
same,GI50,[55],30.1 µM (inactive)
